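The compound was tested at five concentrations on cells cultured in 96-well plates, with a 48-hour exposure period. GI50 marks 50% less growth. Definition used: TGI = concentration required for complete inhibition of growth.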 Where only a bound is given, the exact number is not on record here.

What all share (test): NCI-60 cell line screen, 48 h
For test [1], the system named is OVCAR-3 ovarian.
In test [2] the test system is SK-MEL-2 melanoma.
The test system of test [3] is HOP-62 NSCLC.
The test system of test [4] is RXF 393 renal.
Test [5] concerns NCI-H460 lung.
The test system of test [6] is HT29 colon.
The test system of test [7] is SK-OV-3 ovarian.
Test [8] relates to OVCAR-8 ovarian.
Test [9] has as its system OVCAR-4 ovarian.
In test [10] the test system is TK-10 renal.

For `COc1ccc2c(c1)O/C(=C\c1cccc(OCC(=O)Nc3nc(C)c(C)s3)c1)C2=O`, the GI50 was 0.448 µM in test [1]; 1.68 µM in test [2]; 0.542 µM in [3]; 1.06 µM in [4]; 11.6 µM in test [5]; 2.73 µM in [6]. Also, the GI50 was 25.2 µM in [7], 4.7 µM in [8], 12.8 µM in test [9] and 5.41 µM in test [10]. Moreover, the TGI in [1] is 1.05 µM; in test [2], 3.22 µM; in test [3], 1.13 µM; in test [4], 2.75 µM; in [5] it was > 100 µM; in test [6] it was > 21 µM. Further, the TGI in test [7] is > 75.3 µM; in test [8] it was > 100 µM; in test [9], > 100 µM; in test [10], > 100 µM.
Take `C=C(CO)CC(/C=C(\C)CC/C=C(\C)CCl)OC(C)=O` (stereo not given): the TGI in test [1], in test [2], in test [3], in test [4], in [5] and in test [6] was > 100 µM in each case. Further, the TGI in [7], in test [8], in test [9] and in test [10] was > 100 µM in each case.
For the compound `COc1ccc2c(c1)[n+](=O)c(C(=O)CC(=O)C(=O)Nc1cccc(C)c1C)c(C)n2[O-]`, the TGI in test [1], in test [2], in test [3], in test [4], in test [5] and in [6] was > 100 µM throughout. Also, the TGI in [7], in test [8], in [9] and in test [10] was > 100 µM each time.
Consider `O=C(/C=C\n1cnc(-c2cc(C(F)(F)F)cc(C(F)(F)F)c2)n1)N1CC(F)(F)C1`, for which the GI50 was 0.332 µM in test [1]; 0.154 µM in test [2]; 0.57 µM in test [3]; 0.226 µM in test [4]; 0.207 µM in test [5]; 0.919 µM in [6]. For the same compound, the GI50 is 1.08 µM in [7], 0.442 µM in test [8], 0.224 µM in [9] and 0.645 µM in test [10]. In addition, the TGI in [1] is 3.03 µM; in [2], 1.58 µM; in test [3] it was 3.46 µM; in test [4], 1.09 µM; in test [5], 3.07 µM; in test [6], 11.5 µM. Moreover, the TGI in test [7] is > 25 µM; in test [8] it was > 11.8 µM; in test [9], 4.13 µM; in test [10] it was 3.7 µM.
On to `Cc1cccc(Nc2cc(Cl)nc(SCC(=O)O)n2)c1C`, for which the TGI in test [1], in test [2], in test [3], in test [4], in test [5] and in test [6] was > 100 µM in each case. Also, the TGI in test [7], in [8], in [9] and in [10] was > 100 µM each time.
On to `COc1ccc2c(c1)CCc1c(CO)c(COC(=O)NC(C)C)n(C)c1-2`, for which the TGI in test [1] was found to be 54.9 µM; in test [2], 58 µM; in test [3], 75.6 µM; in [4] it was 38.7 µM; in test [5] it was 26.5 µM; in test [6], 13.5 µM. For the same compound, the TGI in test [7] is 73.3 µM; in [8], 21.2 µM; in [9], 53.5 µM; in test [10], > 100 µM.
As for `Cc1nc(Sc2nc3ccc([N+](=O)[O-])cc3s2)sc1C`, the GI50 in test [1] is 1.35 µM; in test [2], 1.6 µM; in test [3] it was 3.81 µM; in test [4] it was 1.22 µM; in test [5], 0.894 µM; in test [6], 1.64 µM. For the same compound, the GI50 in test [7] was 4.38 µM; in [8] it was 1.79 µM; in test [9], 1.35 µM; in test [10], 2.05 µM. Moreover, the TGI in test [1] is 3.28 µM; in test [2], 4.53 µM; in test [3] it was 14.2 µM; in [4], 3.39 µM; in test [5], 6.26 µM; in test [6], 4.23 µM. For the same compound, the TGI in [7] is 15.5 µM; in [8], 7.12 µM; in test [9], 9.81 µM; in [10], 7.87 µM.
As to `CCOC(=O)C1=C(C(=O)OCC)C2(c3ccccc3)N(O1)c1ccccc1C2(C)C` (stereo not given), the TGI in test [1], in test [2], in test [3], in test [4], in test [5] and in test [6] was > 100 µM throughout. Also, the TGI is 95.2 µM in test [7], > 100 µM in test [8], 71.8 µM in test [9] and > 100 µM in [10].
`CCN(CC)c1ccc(/C=N/NC(=O)CSc2nc3ccccc3c(=O)n2Cc2ccc(S(N)(=O)=O)cc2)c(O)c1`: the GI50 in test [1] is 0.287 µM; in test [2] it was 2.41 µM; in test [3] it was 0.961 µM; in test [4] it was 2.5 µM; in test [5], 0.425 µM; in test [6] it was 3.01 µM. The GI50 in test [7] was 1.32 µM; in test [8] it was 0.932 µM; in [9], 0.311 µM; in test [10], 1.66 µM. In addition, the TGI in [1], in [2], in test [3], in test [4], in test [5] and in test [6] was > 100 µM each time. Moreover, the TGI in test [7], in test [8], in test [9] and in test [10] was > 100 µM each time.
